What follows are compounds tested on AM24 protein (assay: Evaluation of the nitrile hydratase activity of AM24 protein (2): substrate specificity). Details: activity defined as 100 when acrylonitrile is the substrate; 0.2% (v/v) nitrile solution, 25° C., 5 minutes, pH 7.0; amide measured by HPLC.
Type: biochemical, Rhizobium sp. MCI2643
Experimental: One volume of the AM24 protein solution (its absorbance was 0.1 at 280 nm) and 4 volumes of 0.5M phosphate buffer, pH 7.0 were mixed together, to which were added 90 volumes of a 0.2% (v/v) solution of a nitrile compound for reaction at 25° C. for 5 minutes. After the reaction, 5 volumes of 1N HCl were added to terminate the reaction, and the resulting solution was then applied to an ODS column for HPLC, to measure the resulting amide compound. As the nitrile compound as the substrate, use was made of acrylonitrile, propionitrile, n-butyronitrile, isobutyronitrile, acetonitrile, chloroacetonitrile, malonamidenitrile, methacrylonitrile, 3-cyanopyridine, benzonitrile, and chrotononitrile.
The relative activity of each substrate is shown in Table 1, provided that the activity is defined as 100 when acrylonitrile is used as a reaction substrate.

SMILES	Specific activity (%) (relative activity of each substrate)
N#Cc1cccnc1 [3-Cyanopyridine]	9%
CC#N [Acetonitrile]	47%
C=CC#N [Acrylonitrile]	100%
N#Cc1ccccc1 [Benzonitrile]	251%
N#CCCl [Chloroacetonitrile]	671%
CC=CC#N [Chrotononitrile]	34%
CC(C)C#N [Isobutyronitrile]	28%
N#CCC(N)=O [Malonamidenitrile]	143%
C=C(C)C#N [Methacrylonitrile]	143%
CCC#N [Propionitrile]	59%
CCCC#N [n-Butyronitrile]	152%

What follows are compounds tested on transformant containing the pEAM24X1 (assay: Conversion of a nitrile into an amide using the transformant containing pEAM24X1). Details: transformant cultured with CoCl2 and IPTG; aqueous 7% acrylonitrile solution, 30° C., 1 hour; HPLC.
Type: cell-based, Escherichia coli DH5 α
Experimental: The transformant containing the pEAM24X1 obtained in Example 7 was cultured overnight at 27° C. in 10 ml of an LB culture medium (containing 50 μg/ml Ampicillin). […] The strain were centrifuged and harvested, washed once in physiological saline, and suspended in 1.6 ml of a phosphate buffer (pH 7.0, 0.1M). 0.32 ml of the suspension was sampled, followed by mixing with 80 μl of an aqueous 7% acrylonitrile solution for reaction at 30° C. for 1 hour. After the termination of the reaction by addition of HCl as described before, the acrylamide and acrylonitrile concentrations in the reaction solution were determined by HPLC.
Thus cobalt is essential for nitrile hydratase activity.

SMILES	conversion of acrylonitrile to acrylamide
C=CC#N [Acrylonitrile]	complete

Same assay, conditions: transformant harboring pEAM24X1 cultured in a culture medium without cobalt

SMILES	acrylamide in the reaction solution after termination of the reaction
C=CC#N [Acrylonitrile]	no acrylamide was detected
